For 36 compounds, IC50 results are on record in patent US20240246946A1, “MODULATORS OF TREX1” (Constellation Pharmaceuticals, Inc., priority 2021, published 2024).

Structures are written as SMILES.

In general, IC50 refers to the point on the concentration scale where inhibition reaches its midpoint.

One test deals with T1, full length human TREX1 (Homo sapiens, UniProt Q9NSU2).
T1 construct: N-terminally His-Tev tagged full length human TREX1; made in house; host or cells: E. coli
T1 sequence (Q9NSU2 1-314): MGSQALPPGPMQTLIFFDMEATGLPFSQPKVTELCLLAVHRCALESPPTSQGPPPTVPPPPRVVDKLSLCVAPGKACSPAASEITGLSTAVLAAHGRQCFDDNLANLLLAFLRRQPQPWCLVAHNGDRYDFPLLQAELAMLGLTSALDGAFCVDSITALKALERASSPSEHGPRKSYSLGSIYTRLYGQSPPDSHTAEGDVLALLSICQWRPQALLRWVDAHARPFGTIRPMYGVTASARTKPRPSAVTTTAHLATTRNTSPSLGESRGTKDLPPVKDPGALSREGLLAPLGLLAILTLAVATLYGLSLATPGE
The test can be described thus: hTREX1 Biochemical Assay (fluorescence, dsDNA substrate degradation). The following applies: biochemical, read-out: hTREX1 IC50. A digest of the protocol:
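Cleavage of 60 nM TEX615/quencher-labelled dsDNA in pH 7.4 Tris buffer with 5 mM MgCl2, 1.0% DMSO, run 18 hours at 25° C, EDTA-quenched; fluorescence read-out.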

Another test concerns the target T2, full length mouse TREX1 (Mus musculus, UniProt Q91XB0).
T2 construct: N-terminally His-Tev tagged full length mouse TREX1; made in house; host or cells: E. coli
T2 sequence (Q91XB0 1-314): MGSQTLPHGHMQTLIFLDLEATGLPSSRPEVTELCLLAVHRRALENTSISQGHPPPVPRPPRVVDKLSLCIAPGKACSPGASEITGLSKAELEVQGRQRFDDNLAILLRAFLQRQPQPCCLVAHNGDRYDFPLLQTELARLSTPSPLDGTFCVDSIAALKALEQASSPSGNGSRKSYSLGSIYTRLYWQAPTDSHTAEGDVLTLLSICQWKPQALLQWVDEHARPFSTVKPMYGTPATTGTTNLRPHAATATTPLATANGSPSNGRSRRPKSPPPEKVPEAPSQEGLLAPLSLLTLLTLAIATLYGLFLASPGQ
The test can be described thus: mTREX1 Biochemical Assay (fluorescence, dsDNA substrate degradation). The following applies: biochemical, read-out: mTREX1 IC50. A digest of the protocol: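 Reaction run 18 h at 25° C. with 60 nM TEX615/quencher-labelled dsDNA and 6 pM mouse TREX1 in Tris buffer (pH 7.4, 5 mM MgCl2, 1.0% DMSO), enzyme having sat 4 h with compound across 10 concentrations. EDTA quench; substrate degradation measured as fluorescence increase.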

Consider `CC(c1nc(C(=O)Nc2cnoc2)c(O)c(=O)n1C)C(c1cnn(CCN2CCOCC2)c1)c1ccccc1C#N` (single isomer, unassigned) [Example 20 D1E2], for which the IC50 at full length human TREX1 and on full length mouse TREX1 was over 0.01 µM throughout.
As to `CC(c1nc(C(=O)Nc2cnoc2)c(O)c(=O)n1C)C(c1cnn(C)c1)c1cc(F)c(F)cc1Cl` (single isomer, unassigned) [Example 28 D2E1], the IC50 at full length human TREX1 and at full length mouse TREX1 was over 0.01 µM throughout.
Turning to `CC(c1nc(C(=O)Nc2cnoc2)c(O)c(=O)n1C)C(c1cnn(C)c1)c1cc(Cl)ccc1C#N` (single isomer, unassigned) [Example 26 D2E2], the IC50 on full length human TREX1 and on full length mouse TREX1 was over 0.01 µM throughout.
For `Cc1cnc(C)c(C(c2cc(F)ccc2Cl)C(C)c2nc(C(=O)Nc3cnoc3)c(O)c(=O)n2C)n1` (single isomer, unassigned) [Example 121 D2E2], the IC50 at full length human TREX1 and on full length mouse TREX1 was over 0.01 µM in each case.
As to `CC(c1nc(C(=O)Nc2cnoc2)c(O)c(=O)n1C)C(c1cnn(C)c1)c1ccc(Cl)cc1C#N` (single isomer, unassigned) [Example 27 D2E2], the IC50 on full length human TREX1 and on full length mouse TREX1 was over 0.01 µM in each case.
For `CC(c1nc(C(=O)Nc2cnoc2)c(O)c(=O)n1C)C(c1ccccc1C#N)c1c(C#N)cnn1C` (single isomer, unassigned) [Example 52 D1E2], the IC50 on full length human TREX1 and at full length mouse TREX1 was over 0.01 µM in each case.
Turning to `CC(c1nc(C(=O)Nc2cnoc2)c(O)c(=O)n1C)C(c1cnn(CCN2CCN(C(=O)OC(C)(C)C)CC2)c1)c1ccccc1C#N` (single isomer, unassigned) [Example 21 D1E2], the IC50 on full length human TREX1 and on full length mouse TREX1 was over 0.01 µM each time.
`Cc1ncc(C(c2ccccc2Cl)C(C)c2nc(C(=O)Nc3cnoc3)c(O)c(=O)n2C)nc1C` (single isomer, unassigned) [Example 125 D2E2]: the IC50 on full length human TREX1 and at full length mouse TREX1 was over 0.01 µM each time.
As for `CC(c1nc(C(=O)Nc2cnoc2)c(O)c(=O)n1C)C(c1cnn(C)c1)c1ccc(C(=O)N(C)C)cc1C#N` (single isomer, unassigned) [Example 11 D2E1], the IC50 on full length human TREX1 and on full length mouse TREX1 was over 0.01 µM each time.
Turning to `CC(c1nc(C(=O)Nc2cnoc2)c(O)c(=O)n1C)C(c1cnn(C)c1)c1cc(Cl)ccc1C#N` (single isomer, unassigned) [Example 26 D1E1], the IC50 at full length human TREX1 and at full length mouse TREX1 was over 0.01 µM throughout.
For the compound `CC(c1nc(C(=O)Nc2cnoc2)c(O)c(=O)n1C)C(c1cocn1)c1ccccc1C#N` (single isomer, unassigned) [Example 50 D2E2], the IC50 at full length human TREX1 and on full length mouse TREX1 was over 0.01 µM in each case.
For the compound `CC(c1nc(C(=O)Nc2cnoc2)c(O)c(=O)n1C)C(c1cnn(CCN(C)C)c1)c1ccccc1C#N` (single isomer, unassigned) [Example 33 D2E2], the half-inhibitory concentration (IC50) at full length human TREX1 and at full length mouse TREX1 was over 0.01 µM each time.
For `CCn1cc(C(c2cc(F)ccc2C#N)C(C)c2nc(C(=O)Nc3cnoc3)c(O)c(=O)n2C)cn1` (single isomer, unassigned) [Example 17 D1E1], the IC50 on full length human TREX1 and at full length mouse TREX1 was over 0.01 µM each time.
As to `CC(c1nc(C(=O)Nc2cnoc2)c(O)c(=O)n1C)C(c1cnn(C)c1)c1ccncc1C#N` (single isomer, unassigned) [Example 8 D2E1], the IC50 on full length human TREX1 and on full length mouse TREX1 was over 0.01 µM each time.
As to `CCn1cc(C(c2ccccc2C#N)C(C)c2nc(C(=O)Nc3cnoc3)c(O)c(=O)n2C)c(C)n1` (single isomer, unassigned) [Example 70 D2E2], the IC50 on full length human TREX1 and on full length mouse TREX1 was over 0.01 µM each time.
Turning to `COCCn1cc(C(c2ccccc2C#N)C(C)c2nc(C(=O)Nc3cnoc3)c(O)c(=O)n2C)c(C)n1` (single isomer, unassigned) [Example 71 D2E2], the IC50 on full length human TREX1 and on full length mouse TREX1 was over 0.01 µM each time.
Consider `CC(c1nc(C(=O)Nc2cnoc2)c(O)c(=O)n1C)C(c1cnccn1)c1ccccc1C#N` (single isomer, unassigned) [Example 66 D1E2], for which the IC50 at full length human TREX1 was 0.001 to 0.01 µM; on full length mouse TREX1, over 0.01 µM.
For `Cc1ccn(C(c2ccccc2Cl)C(C)c2nc(C(=O)Nc3cnoc3)c(O)c(=O)n2C)n1` (single isomer, unassigned) [Example 49 D1E1] the same measures were 0.001 to 0.01 µM and 0.001 to 0.01 µM.
In the same order, the values of `CC(c1nc(C(=O)Nc2cnoc2)c(O)c(=O)n1C)C(c1cn(C)cn1)c1ccccc1C#N` (single isomer, unassigned) [Example 39 D1E1] are over 0.01 µM and over 0.01 µM.
In the same order, the values of `COC(C)(C)Cn1cc(C(c2ccccc2C#N)C(C)c2nc(C(=O)Nc3cnoc3)c(O)c(=O)n2C)cn1` (single isomer, unassigned) [Example 37 D2E1] are over 0.01 µM and over 0.01 µM.
In the case of `CC(c1nc(C(=O)Nc2cnoc2)c(O)c(=O)n1C)C(c1cnn(C2COC2)c1)c1ccccc1C#N` (single isomer, unassigned) [Example 106 D2E2], the IC50 on full length human TREX1 and at full length mouse TREX1 was over 0.01 µM in each case.
In the case of `Cc1cncc(C(c2ccccc2C#N)C(C)c2nc(C(=O)Nc3cnoc3)c(O)c(=O)n2C)n1` (single isomer, unassigned) [Example 53 D2E2], the IC50 on full length human TREX1 and on full length mouse TREX1 was over 0.01 µM throughout.
In the case of `CC(c1nc(C(=O)Nc2cnoc2)c(O)c(=O)n1C)C(c1cnn(CC2CC2)c1)c1ccccc1C#N` (single isomer, unassigned) [Example 23 D2E2], the IC50 at full length human TREX1 and at full length mouse TREX1 was over 0.01 µM each time.
Regarding `CCn1cc(C(c2ccc(F)cc2C#N)C(C)c2nc(C(=O)Nc3cnoc3)c(O)c(=O)n2C)cn1` (single isomer, unassigned) [Example 16 D2E2], the half-inhibitory concentration (IC50) on full length human TREX1 and on full length mouse TREX1 was over 0.01 µM throughout.
In the case of `CCn1cc(C(c2ccc(F)cc2C#N)C(C)c2nc(C(=O)Nc3cnoc3)c(O)c(=O)n2C)cn1` (single isomer, unassigned) [Example 16 D1E2], the IC50 on full length human TREX1 and at full length mouse TREX1 was over 0.01 µM each time.
`CC(c1nc(C(=O)Nc2cnoc2)c(O)c(=O)n1C)C(c1cnn(C)c1)c1cccnc1C#N` (single isomer, unassigned) [Example 7 D2E1]: the IC50 at full length human TREX1 and on full length mouse TREX1 was over 0.01 µM each time.
`CCn1ncc(C(c2ccccc2C#N)C(C)c2nc(C(=O)Nc3cnoc3)c(O)c(=O)n2C)c1C` (single isomer, unassigned) [Example 68 D2E2]: the IC50 at full length human TREX1 and on full length mouse TREX1 was over 0.01 µM in each case.
Regarding `CC(c1nc(C(=O)Nc2cnoc2)c(O)c(=O)n1C)C(c1cnn(C)c1)c1ccc(F)cc1C#N` (single isomer, unassigned) [Example 15 D2E2], the IC50 at full length human TREX1 and at full length mouse TREX1 was over 0.01 µM each time.
Turning to `Cc1cc(C(c2cc(F)ccc2C#N)C(C)c2nc(C(=O)Nc3cnoc3)c(O)c(=O)n2C)n(C)n1` (single isomer, unassigned) [Example 111 D1E1], the IC50 on full length human TREX1 and on full length mouse TREX1 was over 0.01 µM throughout.
For the compound `Cc1nn(C)cc1C(c1cc(F)ccc1Cl)C(C)c1nc(C(=O)Nc2cnoc2)c(O)c(=O)n1C` (single isomer, unassigned) [Example 62 D1E2], the IC50 at full length human TREX1 and on full length mouse TREX1 was over 0.01 µM in each case.
Consider `COCCn1ncc(C(c2ccccc2C#N)C(C)c2nc(C(=O)Nc3cnoc3)c(O)c(=O)n2C)c1C` (single isomer, unassigned) [Example 69 D1E2], for which the IC50 on full length human TREX1 and on full length mouse TREX1 was over 0.01 µM in each case.
With `CCn1cc(C(c2ccccc2C#N)C(C)c2nc(C(=O)Nc3cnoc3)c(O)c(=O)n2C)cn1` (single isomer, unassigned) [Example 13 D2E2], the IC50 at full length human TREX1 and at full length mouse TREX1 was over 0.01 µM in each case.
For the compound `CC(c1nc(C(=O)Nc2cnoc2)c(O)c(=O)n1C)C(c1cnn(C)c1)c1ccc(O)cc1C#N` (single isomer, unassigned) [Example 80 D2E1], the IC50 on full length human TREX1 and on full length mouse TREX1 was over 0.01 µM each time.
For `CC(c1nc(C(=O)Nc2cnoc2)c(O)c(=O)n1C)C(c1cnn(CC(F)(F)F)c1)c1ccccc1C#N` (single isomer, unassigned) [Example 22 D1E2], the IC50 at full length human TREX1 and at full length mouse TREX1 was over 0.01 µM each time.
For `Cc1cc(C(c2ccccc2C#N)C(C)c2nc(C(=O)Nc3cnoc3)c(O)c(=O)n2C)n(C)n1` (single isomer, unassigned) [Example 63 D2E2], the IC50 on full length human TREX1 and at full length mouse TREX1 was over 0.01 µM throughout.
Take `CC(c1nc(C(=O)Nc2cnoc2)c(O)c(=O)n1C)C(c1cnn(CCO)c1)c1ccccc1C#N` (single isomer, unassigned) [Example 35 D2E2]: the IC50 on full length human TREX1 and at full length mouse TREX1 was over 0.01 µM in each case.
